Results as given in ChEMBL document CHEMBL1157497, “Theoretical studies on the structure and symmetry of the transmembrane region of glutamatergic GluR5 receptor” (J Med Chem, 2008).

Columns and labels:
[1] = Inhibition of NMDA receptor
[2] = molecular target: Glutamate NMDA receptor; GRIN1/GRIN2B (Homo sapiens, UniProt Q05586+Q13224); test: Antagonist activity at NR1/2B receptor expressed in xenopus laevis at pH 6.9 by two electrode voltage clamp method; format: functional
Sequence of Glutamate NMDA receptor; GRIN1/GRIN2B (Q13224 whole entry, other chains not shown): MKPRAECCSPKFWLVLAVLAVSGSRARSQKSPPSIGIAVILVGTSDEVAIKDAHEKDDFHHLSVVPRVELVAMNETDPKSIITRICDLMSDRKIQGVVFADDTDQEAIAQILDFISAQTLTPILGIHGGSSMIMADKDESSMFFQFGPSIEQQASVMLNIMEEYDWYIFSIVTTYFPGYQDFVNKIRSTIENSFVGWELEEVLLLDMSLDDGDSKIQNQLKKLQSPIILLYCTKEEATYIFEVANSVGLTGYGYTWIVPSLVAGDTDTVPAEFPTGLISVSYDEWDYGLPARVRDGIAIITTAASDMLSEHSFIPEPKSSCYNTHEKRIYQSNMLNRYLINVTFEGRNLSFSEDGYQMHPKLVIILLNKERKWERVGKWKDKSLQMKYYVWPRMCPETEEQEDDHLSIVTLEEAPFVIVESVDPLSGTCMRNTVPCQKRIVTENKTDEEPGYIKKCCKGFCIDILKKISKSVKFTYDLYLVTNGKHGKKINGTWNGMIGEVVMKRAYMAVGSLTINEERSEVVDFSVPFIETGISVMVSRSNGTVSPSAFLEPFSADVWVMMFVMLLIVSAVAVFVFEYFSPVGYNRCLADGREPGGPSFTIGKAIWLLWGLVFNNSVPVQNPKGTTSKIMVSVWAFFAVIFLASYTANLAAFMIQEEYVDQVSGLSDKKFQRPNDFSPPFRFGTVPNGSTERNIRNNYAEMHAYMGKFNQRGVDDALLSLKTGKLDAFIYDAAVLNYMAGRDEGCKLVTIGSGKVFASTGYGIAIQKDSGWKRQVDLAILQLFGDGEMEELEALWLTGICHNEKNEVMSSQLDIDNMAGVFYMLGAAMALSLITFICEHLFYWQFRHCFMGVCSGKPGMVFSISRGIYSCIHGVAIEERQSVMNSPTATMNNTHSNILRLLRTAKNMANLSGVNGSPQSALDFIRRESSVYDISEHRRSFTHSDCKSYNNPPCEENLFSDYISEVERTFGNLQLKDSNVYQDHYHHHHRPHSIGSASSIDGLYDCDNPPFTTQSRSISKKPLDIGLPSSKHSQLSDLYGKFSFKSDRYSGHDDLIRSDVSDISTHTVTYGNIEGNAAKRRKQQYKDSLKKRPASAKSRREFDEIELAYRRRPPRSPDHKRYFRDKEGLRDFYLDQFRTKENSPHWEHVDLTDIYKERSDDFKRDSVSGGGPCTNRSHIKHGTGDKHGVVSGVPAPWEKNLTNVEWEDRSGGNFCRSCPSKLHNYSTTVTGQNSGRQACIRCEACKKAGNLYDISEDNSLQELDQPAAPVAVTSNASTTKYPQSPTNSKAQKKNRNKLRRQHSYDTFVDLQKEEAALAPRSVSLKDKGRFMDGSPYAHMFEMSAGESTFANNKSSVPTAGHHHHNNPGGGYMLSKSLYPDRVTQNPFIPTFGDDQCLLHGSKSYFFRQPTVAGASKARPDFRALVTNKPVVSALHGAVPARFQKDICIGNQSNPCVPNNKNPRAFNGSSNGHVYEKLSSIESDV

NCCCCCNC1(c2ccccc2)CCCCC1
IC50 [1]: 2100 nM

CN1CC[C@@]23CCCC[C@@H]2[C@@H]1Cc1ccc(O)cc13 [DEXTRORPHAN]
IC50 [2]: 246 nM
